One test deals with T1, catalytic domain of Pin1 (Homo sapiens, UniProt Q13526).
T1 construct: The purified catalytic domain of Pin1 was incubated with the fragment library
Kind of test: Intact protein LC/MS labeling of Pin1. Format: binding.

Test [1] has as its system transplanted EGFP-labeled neuroblastoma cells. The experiment in a line: Primary tumor derived allograft (PDA) neuroblastoma model in zebrafish embryos. Format: in vivo. As to conditions: 100 μM in the fish water, five days. Here is the method:
The anti-tumor activity of Pin1-3 was then assessed on the maintenance of fully transformed neuroblastoma cells in vivo in primary tumor derived allograft (PDA) models constructed in transplanted zebrafish embryos. EGFP-labeled neuroblastoma cells were dissected from 4-month-old Tg(dβh:MYCN;dβh:EGFP) donor zebrafish, disaggregated, counted and 200-400 GFP-labeled tumor cells were injected intravenously into the Duct of Cuvier (common cardinal vein) of 2 dpf zebrafish embryos [He et al., J Pathol 2012, 227:431-445]. One day after injection, 100 μM Pin1-3 or the DMSO control was added to the fish water containing embryos bearing the transplanted EGFP-labeled neuroblastoma cells. Five days later, the area of the EGFP-labeled tumor mass in treated embryos was quantified.

Test [2] has as its system 300 suspension and hematopoietic human cancer cell lines. The experiment in a line: PRISM anti-proliferative profiling. Format: cell-based. The following applies: 120 h, all 300 cancer cell lines, 5-day treatment. From the text: In order to profile the anti-proliferative activity of Pin1-3, the compound was submitted to the PRISM platform (Broad Institute) to evaluate its potency against 300 suspension and hematopoietic human cancer cell lines. The PRISM method enables high-throughput, pooled screening of mixtures of cell lines, which are each labeled with a 24-nucleotide barcode [Yu et al., Nat Biotechnol 2016, 34:419-423].

The subject of test [3] is Myc transcriptional output in Mino B cells. The experiment in a line: RNA sequencing and gene set enrichment. Format: cell-based, human. The following applies: 1 μM, 6 hours. Here is the method:
Mino cells (acquired from the ATCC) were grown at 37° C. in a 5% CO2 humidified incubator and cultured in RPMI-1640 (Biological Industries), supplemented with 15% fetal bovine serum (Biological Industries) and 1% pen-strep solution (Biological Industries). 11×10^6 cells were incubated with 1 μM Pin1-3 (0.02% DMSO) or with 0.02% DMSO in triplicates for 6 hours. Total RNA was isolated with RNeasy™ kit (Qiagen). RNA libraries were prepared from 2 μg total RNA using SENSE™ mRNA-Seq library prep kit V2 (Lexogen). Total RNA and library quality was analyzed using Qubit™ fluorometric and TapeStation™ analysis (Agilent). Samples were sequenced using NextSeg™ 500/550 High Output Kit v2.5 (Illumina) on NextSeg™ 550.
RNA-seq reads were aligned to the human genome (hg19 assembly) using STAR [Dobin et al., Bioinformatics 2013, 29:15-21] and gene expression was determined using RSEM [L1 & Dewey, BMC Bioinformatics 2011, 12:323] and RefSeq annotations. Differential expression was computed using DESeq2 [Love et al., Genome Biol 2014, 15:550] with default parameters.
In order to test whether Pin1-3 affects Myc transcriptional output, Mino B cells were treated with Pin1-3 (1 μM) for 6 hours (in triplicates) or vehicle (DMSO), followed by a global RNA sequencing analysis to detect differentially expressed genes as the result of this perturbation. […]

T1 sequence (Q13526 52-163 limits assumed): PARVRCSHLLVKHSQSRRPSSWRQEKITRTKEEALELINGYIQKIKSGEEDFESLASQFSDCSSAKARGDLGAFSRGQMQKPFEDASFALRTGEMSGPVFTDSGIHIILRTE

Turning to `CC(C)(C)CN(C(=O)CCl)C1CCS(=O)(=O)C1` (stereo not drawn) [Pin1-3, 2-chloro-N-(sulfolan-3-yl)-N-neopentylacetamide], the “Labeling [%]” value at catalytic domain of Pin1 (2 μM Pin1 with 2 μM test compound for 15 minutes at room temperature) is recorded as 10%. In addition, the “Labeling [%]” value on catalytic domain of Pin1 (2 μM Pin1 with 2 μM test compound for 1 hour at room temperature) is 48%. Further, the EGFP-labeled tumor mass entry in test [1] is given as “tumor masses decreased in size”. This compound also gave an IC50 in test [2] above 3000 nM. In addition, in test [3], the “Myc transcriptional signature (Enrichr, ENCODE TF ChIP-seq sets)” value is recorded as “significant downregulation of Myc's transcriptional signature” and the “Number of genes significantly downregulated” value is listed as 206 genes.

(Values after patent US20210332024A1, “MODULATORS OF PIN1 ACTIVITY AND USES THEREOF” (Yeda Research and Development Co. Ltd., priority 2019, published 2021).)
